Our source for the GI50 and TGI values is PubChem BioAssay (NCI).

Test systems include DU-145 prostate; MDA-MB-231 breast; MOLT-4 leukemia; NCI-H226 lung; NCI/ADR-RES ovarian; SF-295 CNS; SF-539 CNS; SN12C renal; SR leukemia; UO-31 renal.
Common to all, as to assay: growth of human tumour cells (NCI), 48 h

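Tested at 5 concentrations; 48 h exposure; 96-well plates; endpoints linearly interpolated, else capped at highest concentration. Abbreviation: GI50, concentration required for 50% inhibition of growth. The concentration for full growth arrest is given as TGI.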 A value given as a limit tells only on which side of the number the result lay.

`COc1ccc(NC(=O)O[C@H]2[C@H](O[C@H]3[C@@H](O)COC(O[C@H]4C[C@H]5[C@@H]6CC=C7C[C@@H](O)CC[C@]7(C)[C@H]6CC[C@]5(C)[C@H]4[C@H](C)C(=O)CCC(C)C)[C@@H]3OC(C)=O)OC[C@@H](O)[C@@H]2O)cc1` (stereo not given in full): the GI50 with DU-145 prostate is 367 nM; in the experiment with MDA-MB-231 breast, 318 nM; in the experiment on MOLT-4 leukemia, below 10 nM; in the experiment with NCI-H226 lung it was 72.5 nM; in the experiment on NCI/ADR-RES ovarian, 3780 nM; in the experiment on SF-295 CNS it was below 10 nM. In addition, the GI50 with SF-539 CNS is below 10 nM; in the experiment on SN12C renal, 11400 nM; with SR leukemia, below 10 nM; in the experiment with UO-31 renal it was 24 nM. In addition, the TGI in the experiment with DU-145 prostate is 34700 nM; in the experiment on MDA-MB-231 breast, 19200 nM; in the experiment on MOLT-4 leukemia, 340 nM; with NCI-H226 lung it was 17300 nM; with NCI/ADR-RES ovarian, above 100000 nM; in the experiment with SF-295 CNS it was below 10 nM. The TGI is 12.4 nM in the experiment with SF-539 CNS, above 100000 nM in the experiment on SN12C renal, 29900 nM with SR leukemia and 97.8 nM with UO-31 renal.

Take `ClC1=C(Cl)C(Cl)=C(Cl)C1=Cc1ccc(Cl)cc1`: the GI50 was 629 nM in the experiment with DU-145 prostate; 302 nM in the experiment with MDA-MB-231 breast; 356 nM in the experiment on MOLT-4 leukemia; 389 nM with NCI-H226 lung; 366 nM in the experiment on NCI/ADR-RES ovarian; 2270 nM with SF-295 CNS. Moreover, the GI50 in the experiment on SF-539 CNS is 733 nM; in the experiment on SN12C renal, 375 nM; in the experiment with SR leukemia it was 253 nM; in the experiment on UO-31 renal it was 539 nM. Moreover, the TGI in the experiment with DU-145 prostate came out at 2070 nM; in the experiment on MDA-MB-231 breast, 1080 nM; in the experiment with MOLT-4 leukemia it was 2960 nM; with NCI-H226 lung, 1860 nM; with NCI/ADR-RES ovarian, 2150 nM; with SF-295 CNS, 8850 nM. Further, the TGI amounted to 2180 nM with SF-539 CNS, 1820 nM in the experiment on SN12C renal, 1720 nM in the experiment on SR leukemia and 2520 nM in the experiment with UO-31 renal.
